Measured values: patent publication US20040038861A1, “Methods and compositions for normalizing lipid levels in mammalian tissues” (priority 2001, published 2004)

Key:
soleus muscle [1] = assay: Lipid metabolites (free fatty acid, glycerol, triglyceride; enzymatic analysis) in isolated soleus muscle from normally fed rats; type: cell-based, rat
soleus muscle [2] = assay: Triglyceride and free fatty acid content (enzymatic) in isolated soleus muscle of rats fed high fat diets; type: cell-based, rat; details: 1 h
Text: (§1) High-fatted rats. Groups of male Wistar rats (n=21/diet) were ad libitum fed high-fat diets containing standard rat chow to which 40% (w/w) of lard, corn oil or olive oil had been added, from the time of weaning (age=21 d) until sacrifice at 50 d. Triacylglycerol from lard contains predominantly saturated fatty acids; that from corn oil […], see Table 4.
(§2) Soleus muscle tissue isolation and incuhation.Immersion and incubation media was Krebs-Henseleit buffer (KHB) containing 118.5 mM NaCl, 4.75 mM KCl, 1.18 mM MgSO4.7H2O and KH2PO4, 24.8 mM NaHCO3, 2.54 mM CaCl2 and 10 mM d-glucose. The medium was gassed continuously with 95% O2/5% CO2. […] Soleus muscles of both legs were excised keeping the tissue immersed in KHB; muscles were separated into two equal parts and transferred to the incubation flasks. At the completion of incubation the muscles were snap frozen in liquid nitrogen, and then trimmed of connective tissue and all visible fat. The muscle strips were stored at −80° C. until analysis.
(§3) Lipid extraction and chromatographic separation of fatty acids. Total lipids were extracted from muscle strips by a modified version of the method of Bligh and Dyer (Gorski et al., 1988, Mol & Cell Biochem 178:113-118; 1. Bligh et al., 1959, Can J Biochem Physiol 37: 911-917). Muscles were homogenised (Soniprep 150) in 0.4 ml of deionised water. Solvent volumes used herein were varied according to the water content of the muscle (ie muscle weight) as described (Bligh & Dyer, supra). 2 vols of methanol containing 0.005% butylated hydroxy toluene (BHT) and 1 vol chloroform were added to the muscle suspension. Homogenates were vortexed at maximum speed for 2 minutes and centrifuged at 2,500 g for 4 minutes. Supernatants were recovered and pellets re-extracted with 2 vol methanol, 1 vol chloroform and 0.8 vol 0.2 N HCl. Residues were vortexed for 2 min then centrifuged at 3,500 g for 3 min. After centrifugation the combined supernatants were diluted with 2v each of milli Q water and chloroform and the phases separated by centrifugation at 3,500 g for 4 minutes. The lower chloroform phase was recovered, neutralised by dropwise addition of 0.2 N methanolic NH4OH and evaporated down in a stream of N2. The samples were stored at −80° C. until required.
(§4) Aminopropyl phase (250 mg) was packed into 16 ml teflon columns with teflon frits placed at the top and bottom of the bonded phase. Columns were placed in a Vac Elut apparatus and washed twice with 2 ml portions of hexane (Prasad et al., 1988, J Chromato 428: 221-228; Kaluzny et al., 1985, J Lipid Res 26: 135-140). The dry lipid samples were taken up in two 0.150 ml portions of chloroform and applied to the column under atmospheric pressure. After adsorption the neutral lipids were eluted with 4 ml of chloroform-2-propanol (2:1, v/v) and the free fatty acids eluted with 4 ml of 2% acetic acid in diethyl ether. The solvent containing the free fatty acids was dried under a stream of N2.
Determination of tissue free fatty acids and triacylglycerol concentration by enzymatic analyses. Free fatty acids were separated from total lipid, evaporated under a stream of N2 and stored at −80° C. until analysis. Samples were dissolved in 50 μl of warm ethanol (35-40° C.), and 0.625 ml of a Triton X-100 (6% w/v) solution was added once the ethanol reached room temperature. The solution was stirred for 30 min, then made up to 0.825 ml with the Triton solution. Free fatty acids were quantified using a commercial method (Boehringer Mannheim) adapted for micro analyses (Cobas Mira, Roche Diagnostics), with palmitic acid standards. Triacyl glycerol levels were quantified in the total lipid fraction (Pointe Scientific) with a glycerol standard.
Total lipid was extracted and quantitated. Results are shown in FIGS. 18A NEFA and 18B triglyceride.

soleus muscle [3] = assay: Individual free fatty acids by gas chromatography in soleus muscle of rats fed high fat diets; set-up: species or system rat; details: 1 hour, GC
Text: as §1, §2, §3, §4
Gas-liquid chromatographic analysis. Dry free fatty acid residues were processed for derivatisation of methyl esters by the boron trifluoride-methanol method (Prasad, supra). 1 ml of boron trifluoride in methanol (BF3) was added to each sample, the sample vials were heated at 70° C. for 5 minutes, shaken vigorously, and baked for a further 10 minutes. Once the samples reached room temperature 0.5 ml milli Q water was added, the sample vials shaken, 0.1 ml heptane was added and the sample shaken again. 0.05 ml of the top heptane layer was removed for GLC analysis. A Model HP5890 Plus Series 2 (Hewlett-Packard) gas chromatograph equipped with a DB-225 column was used to separate the methyl esters of the fatty acids and a Model HP 5890 GC with a Model HP 5973 MS (Hewlett-Packard) GC/MS used to confirm the identity of individual free fatty acids. […]

[4] = rats fed diet high in olive oil

## Rat amylin
Soleus muscle [1]; 100 nM, 1 h, normal-fed rats (FIG. 3A, 3B)
  soleus muscle free fatty acid content, agonist alone: 216 ± 26 nmol/g
Soleus muscle [1]; soleus, normally fed rats, 60-min, 100 nM amylin or CGRP-1, 4.4 μM norepinephrine, control 1.17±0.15, not significant
  triacylglycerol (triglyceride) content: 1.7 ± 0.26 µmol/g
Soleus muscle [1]; soleus, normally fed rats, 1 h, 100 nM amylin or CGRP-1, 4.4 μM norepinephrine, 23.7 nM insulin, control 78±21
  intramuscular free fatty acid content: 216 ± 22 nmol/g
Soleus muscle [1]; soleus, normally fed rats, 1 h, 100 nM amylin or CGRP-1, 4.4 μM norepinephrine, control 0.07±0.007
  intramuscular glycerol content: 0.03 ± 0.004 nmol/g
Soleus muscle [2]; diet with 40% added lard, 100 nM amylin or CGRP-1, 4.4 μM norepinephrine, control 1.14±0.16
  soleus muscle triglyceride content: 0.71 ± 0.07 µmol/g
Soleus muscle [2]; diet with 40% added lard, 100 nM amylin or CGRP-1, 4.4 μM norepinephrine, control 43±8
  soleus muscle free fatty acid content: 102 ± 12 nmol/g
Soleus muscle [2]; diet with 40% corn oil, 100 nM, control 0.89±0.06 μmol/g
  soleus muscle triglyceride content: 0.49±0.07 [mol/g
Soleus muscle [2]; diet with 40% corn oil, 100 nM, control 35±4
  soleus muscle free fatty acid content: 75 ± 9 nmol/g
Soleus muscle [2]; diet with 40% olive oil, 100 nM, control 0.83±0.1
  soleus muscle triglyceride content: 0.44 ± 0.4 µmol/g
Soleus muscle [2]; diet with 40% olive oil, 100 nM, control 15±3
  soleus muscle free fatty acid content: 85 ± 12 nmol/g
Soleus muscle [3]; rats fed diet high in corn oil
  free fatty acid adrenic C22:4: 0.03 ± 0.003 nmol/g wwt
  free fatty acid arachidic C20:0: 0.04 ± 0.002 nmol/g wwt
  free fatty acid arachidonic C20:4: 0.04 ± 0.002 nmol/g wwt
  free fatty acid cervonic C22:6: 0.03 ± 0.002 nmol/g wwt
  free fatty acid linoleic C18:2: 0.18 ± 0.02 nmol/g wwt
  free fatty acid linolenic C18:3: 0.16 ± 0.02 nmol/g wwt
  free fatty acid margaric C17:0: 0.02 ± 0.0009 nmol/g wwt
  free fatty acid myristic C14:0: 0.04 ± 0.006 nmol/g wwt
  free fatty acid oleic C18:1: 0.13 ± 0.01 nmol/g wwt
  free fatty acid palmitic C16:0: 0.12 ± 0.01 nmol/g wwt
  free fatty acid palmitoleic (n-7) C16:1: 0.01 ± 0.0008 nmol/g wwt
  free fatty acid palmitoleic (n-9) C16:1: 0.19 ± 0.008 nmol/g wwt
  free fatty acid pentadecanoic C15:0: 0.05 ± 0.007 nmol/g wwt
  free fatty acid stearic C18:0: 0.14 ± 0.008 nmol/g wwt
  free fatty acid timnodonic C20:5: 0.05 ± 0.007 nmol/g wwt
  free fatty acid vaccenic C18:1: 0.02 ± 0.002 nmol/g wwt
Soleus muscle [3]; rats fed diet high in lard
  free fatty acid adrenic C22:4: 0.03 ± 0.005 nmol/g wwt
  free fatty acid arachidic C20:0: 0.06 ± 0.007 nmol/g wwt
  free fatty acid arachidonic C20:4: 0.01 ± 0.0005 nmol/g wwt
  free fatty acid cervonic C22:6: 0.02 ± 0.002 nmol/g wwt
  free fatty acid linoleic C18:2: 0.29 ± 0.004 nmol/g wwt
  free fatty acid margaric C17:0: 0.08 ± 0.01 nmol/g wwt
  free fatty acid myristic C14:0: 0.05 ± 0.01 nmol/g wwt
  free fatty acid oleic C18:1: 0.2 ± 0.01 nmol/g wwt
  free fatty acid palmitic C16:0: 0.24 ± 0.01 nmol/g wwt
  free fatty acid palmitoleic (n-7) C16:1: 0.02 ± 0.0009 nmol/g wwt
  free fatty acid palmitoleic (n-9) C16:1: 0.02 ± 0.003 nmol/g wwt
  free fatty acid pentadecanoic C15:0: 0.12 ± 0.03 nmol/g wwt
  free fatty acid stearic C18:0: 0.35 ± 0.04 nmol/g wwt
  free fatty acid timnodonic C20:5: 0.02 ± 0.002 nmol/g wwt
  free fatty acid vaccenic C18:1: 0.02 ± 0.002 nmol/g wwt
Soleus muscle [3]; [4]
  free fatty acid adrenic C22:4: 0.05 ± 0.008 nmol/g wwt
  free fatty acid arachidic C20:0: 0.04 ± 0.005 nmol/g wwt
  free fatty acid arachidonic C20:4: 0.03 ± 0.007 nmol/g wwt
  free fatty acid cervonic C22:6: 0.08 ± 0.02 nmol/g wwt
  free fatty acid linoleic C18:2: 0.02 ± 0.004 nmol/g wwt
  free fatty acid linolenic C18:3: 0.01 ± 0.002 nmol/g wwt
  free fatty acid margaric C17:0: 0.02 ± 0.003 nmol/g wwt
  free fatty acid myristic C14:0: 0.01 ± 0.001 nmol/g wwt
  free fatty acid oleic C18:1: 0.34 ± 0.04 nmol/g wwt
  free fatty acid palmitic C16:0: 0.18 ± 0.01 nmol/g wwt
  free fatty acid palmitoleic (n-7) C16:1: 0.02 ± 0.001 nmol/g wwt
  free fatty acid palmitoleic (n-9) C16:1: 0.29 ± 0.03 nmol/g wwt
  free fatty acid pentadecanoic C15:0: 0.04 ± 0.005 nmol/g wwt
  free fatty acid stearic C18:0: 0.18 ± 0.02 nmol/g wwt
  free fatty acid timnodonic C20:5: 0.02 ± 0.003 nmol/g wwt
  free fatty acid vaccenic C18:1: 0.13 ± 0.02 nmol/g wwt
